Molecules are shown by their SMILES.

The nature of the data set: Preliminary solubility tests. The conditions noted are these: preliminary solubility tests for both compounds. Type of data set: physicochemical.

On to `CC(=O)N(C(C)=O)C1=C(Cl)C(=O)c2ccccc2C1=O` [Zapp88, 2-chloro-3-diacetylamino-1,4-naphthoquinone], for which the “hydrophobicity compared with paclitaxel” value is on record as “more hydrophobic”.

For the origin of these results see patent publication US8772355B2, “Stealth polymeric particles for delivery of bioactive or diagnostic agents” (Howard University, priority 2010, dated 2014).
